One data set has as its system hair-matrix cells. The experiment in a line: Proliferation effect of cultured hair-matrix cells. Format: cell-based, Mouse. The following applies: cultured 6 days; for Relative value of the number of cells: control group = 100%. As for the experimental part: Mouse hair tissues were collected and hair-matrix cells were cultured by the method disclosed by Tanigaki, et al., using serum free media (Tanigaki, et al., (1990), Arch. Dermatol. Res. 282: 402-407).
On the first day after the start of culturing hair-matrix cells, the culture media were changed to those containing the above-mentioned chromene compounds.
After culturing the hair-matrix cells for 6 days, they were separated from the culture dishes and the number of cells was counted. The effect of each chromene compound is shown by a relative ratio with the number of cells in the control group (the group cultured in a serum-free medium) being defined as 100%.

For data set [1] the following is noted: reported in Annual Report of Toyama Prefectural Institute for Pharmaceutical Research, 1998; cited from earlier work.

For `COc1c(C(C)O)cc2c(c1OC)OC(C)(C)C=C2` (stereo not shown) [Orthochromene A, 6-(1-hydroxyethyl)-7,8-dimethoxy-2,2-dimethylchromene], in the data set with hair-matrix cells (1 μg/ml in culture medium), the Proliferation rate amounted to 18 % increase over control and the “Relative value of the number of cells” value stood at 118 % control. Also, in the data set with hair-matrix cells (10 μg/ml in culture medium), the Proliferation rate is reported as 44 % increase over control and the “Relative value of the number of cells” value came out at 144 % control.
For `COc1cc(C(C)=O)cc2c1OC(C)(C)C=C2` [Acetovanillochromene, 6-acetyl-8-methoxy-2,2-dimethylchromene], in that order: 33 % increase over control, 133 % control, 35 % increase over control and 135 % control.
As for `COc1c(C(C)=O)cc2c(c1OC)OC(C)(C)C=C2` [Methylripariochromene A, 6-acetyl-7,8-dimethoxy-2,2-dimethylchromene], in the data set with hair-matrix cells (1 μg/ml in culture medium), the Proliferation rate amounted to 12 % increase over control and the “Relative value of the number of cells” value is on record as 112 % control. Further, in the data set on hair-matrix cells (10 μg/ml in culture medium), the Proliferation rate is recorded as 53 % increase over control and the “Relative value of the number of cells” value stood at 153 % control. Besides, the acute toxicity entry in data set [1] is “no toxicity”.

The values above are taken from patent US20070254946A1, “Hair Growth Stimulants” (priority 2003, published 2007).
